The values below come from US7556935B2 (Dana-Farber Cancer Institute, Inc., priority 2001, dated 2009).

Experiment [1] concerns c-Abl. The experiment in a line: Mitochondrial c-Abl kinase activity, GST-Crk(120-225) phosphorylation, ER stress. The experiment is classed as cell-based. The settings on record: anti-c-Abl immunoprecipitates of mitochondrial fraction. Here is the method: (§1) The supernatant was collected and centrifuged at 10,000×g for 10 minutes. […] Protein concentration was determined by the Bio-Rad protein estimation kit.
Analysis of c-Abl activity: Cell lysates were prepared as described in Example 1 and subjected to immunoprecipitation with anti-c-Abl (K-12; Santa Cruz). The immunoprecipitates were resuspended in kinase buffer (see Example 1) containing […] of [g-32P]ATP and GST-Crk(120-225) or GST-Crk(120-212) for 15 minutes at 30° C. The reaction products were analyzed by SDS-PAGE and autoradiography.

For experiment [2], the system named is c-Abl. The experiment in a line: c-Abl levels in cytoplasmic and nuclear fractions, ER stress. The experiment is classed as cell-based. The text has this:
(§2) Isolation of cytoplasmic and nuclear fractions: The cytoplasmic and nuclear fractions were isolated as described in Example 1.

A further experiment concerns MEFs. The experiment in a line: Apoptosis by sub-G1 DNA in MEFs under ER stress. The experiment is classed as cell-based, mouse. The method, then:
Apoptosis assays: DNA content was assessed by staining ethanol-fixed cells with propidium iodide and monitoring by FACScan (Becton-Dickinson).

The subject of experiment [3] is cytochrome c. The experiment in a line: Cytochrome c release in MEFs under ER stress. The settings on record: wild-type MEFs. The experiment is classed as cell-based, mouse. Here is the method: (§3) Cells were treated with A23187 (Sigma) or Brefeldin A (Sigma).
as §2

Experiment [4] has as its system c-Abl. The experiment can be described thus: c-Abl targeting to mitochondria under ER stress, immunofluorescence and immunoblot. It is filed as cell-based. The method, then:
as §3
Digital confocal immunofluorescence microscope: Cells grown on poly-D-lysine coated glass coverslips were fixed (3.7% formaldehyde in PBS, pH 7.4; 10 minutes), permeabilized (0.2% Triton X-100; 10 min), blocked for 30 minutes in media containing serum. After rinsing with PBS, immunostaining was performed by incubating the cells with 50 ng/slide of anti-c-Abl (K-12 rabbit polyclonal; Santa Cruz) and anti-grp-78 (C-20 goat polyclonal; Santa Cruz). For c-Abl and calreticulin staining, cells were incubated first with anti-c-Abl alone for 1 hour followed by blocking for 30 minutes in media containing serum. After washing with PBS, cells were then incubated with anti-calreticulin (rabbit polyclonal; StressGen). Finally, cells were incubated with a 1:250 dilution of CY-3 or Fluorescein (FITC)-conjugated anti-rabbit or anti-goat secondary antibodies (Jackson ImmunoResearch) for 1 hour. Mitochondria were stained with 0.006 ng/slide Mitotracker Green FM (Molecular Probes). Nuclei were stained with 4,6-diamino-2-phenylindole (DAPI; 1 mg/ml in PBS). Coverslips were mounted onto slides with 0.1 M Tris (pH 7.0) in 50% glycerol. Cells were visualized by digital confocal immunofluorescence and images were captured with cooled CCD camera mounted on a Zeiss Axioplan 2 microscope. Images were deconvolved using Slidebook software (Intelligent Imaging Innovations, Inc., Denver, Colo.).
as §1
A general note: A western blot detects proteins with antibodies after separation by electrophoresis.

The subject of experiment [5] is c-Abl. The experiment can be described thus: c-Abl levels in the ER fraction, ER stress. The experiment is classed as cell-based. The method, then: as §3
(§4) Isolation of the ER fraction: Cells were washed with PBS, lysed in homogenization buffer (50 mM Tris-HCl, pH 8.0, 1 mM b-mercaptoethanol, 1 mM EDTA, 0.32 M sucrose and 0.1 mM PMSF), and then centrifuged at 5,000×g for 10 minutes. The supernatant was collected and centrifuged at 105,000×g for 1 hour. […] The resulting supernatant was used as the ER fraction.

The next experiment has as its system grp78. The experiment in a line: grp78 expression in the ER fraction, ER stress. It is filed as cell-based. Here is the method: as §3, §4
The subject of experiment [6] is mitochondrial transmembrane potential. The experiment can be described thus: Mitochondrial transmembrane potential, Rhodamine 123 staining, MEFs. The following applies: wild-type cells, H2O2.
Experiment [7] deals with c-Abl. The experiment can be described thus: c-Abl activity in cytoplasts devoid of nuclei. The experiment is classed as cell-based. Here is the method:
(§5) Analysis of kinase activity: Cell lysates were prepared in lysis buffer (10 mM Tris-HCl, pH 7.5, 10 mM NaCl, 1 mM DTT, 0.1 mM EDTA, 3 mM MgCl2, 0.5 mM PMSF, 5 μg/ml leupeptin) containing 0.5% Nonidet P-40 and subjected to immunoprecipitation as described (Kharbanda et al. (1997) Nature 386, 732-735) with anti-c-Abl (sc-23; Santa Cruz) or mouse IgG (Santa Cruz). The immunoprecipitates were resuspended in kinase buffer (20 mM HEPES, pH 7.4, 10 mM MgCl2, 10 mM MnCl2) containing 2.5 μCi [g-32P]ATP and GST-Crk(120-225) or GST-Crk(120-212) for 20 minutes at 30° C. Anti-PKCd (sc-937; Santa Cruz) and anti-ERK1 (sc-93; Santa Cruz) immunoprecipitates were analyzed by using histone H1 and myelin basic protein (Upstate Biotecnology Inc.), respectively, as substrates. The reaction products were analyzed by SDS-PAGE and autoradiography.

The test system of experiment [8] is cytochrome c. The following applies: wild-type MEFs. The method, then: (§6) Cell culture: COS7 cells and mouse embryonic fibroblasts (MEFs) derived from wild-type and c-Abl^−/− mice were cultured in Dulbecco's modified Eagle's medium containing 10% heat-inactivated fetal calf serum, 2 mM L-glutamine, 100 units/ml penicillin and 100 μg/ml streptomycin. DLD1 cells were grown as described (Polyak et al. (1997) Nature 389, 300-305). Cells were treated with H2O2 (Sigma), 30 mM N-acetyl-L-cysteine (NAC; Sigma) or 10 μM cis-platinum (Sigma).

For experiment [9], the system named is cytochrome c. The experiment in a line: Cytochrome c release in U-937 cells, immunoblot of cytoplasmic fractions. The experiment is classed as cell-based, human. The following applies: U-937 cells, agent alone. The method, then: (§7) Cells were also treated with 10 μM rottlerin (Calbiochem).
(§8) Transfections were performed with Superfect (Qiagen).
(§9) The cells were disrupted by Douce homogenization.

Experiment [10] concerns c-Abl. The experiment can be described thus: c-Abl immune complex kinase assay, phosphorylation of GST-Crk(120-225), COS7 cells. The experiment is classed as cell-based. Here is the method:
as §6, §5

The subject of another experiment is PKCζ. The experiment in a line: Cytoplasmic or mitochondrial PKCζ levels in U-937 cells, immunoblot. The following applies: H2O2.
For experiment [11], the target named is PKCd (Mus musculus, UniProt P28867). The settings on record: NIH3T3 cells, H2O2. Here is the method:
as §8
(§10) The supernatants (S1) were collected.

The test system of experiment [12] is c-Abl. The experiment in a line: c-Abl translocation to mitochondria in MEFs, oxidative stress. The experiment is classed as cell-based, mouse. Here is the method: Cells were treated with 1 mM H2O2 (Sigma) and 30 mM N-acetyl-L-cysteine (NAC; Sigma). Transient transfections were performed in the presence of calcium phosphate.
Immunofluorescence microscopy: Cells were plated onto poly D-lysine coated glass coverslips 1 day prior to H2O2 treatment (1 hour) and then fixed with 3.7% formaldehyde/PBS (pH 7.4) for 10 minutes. Cells were washed with PBS, permeabilized with 0.2% Triton X-100 for 10 minutes, washed again and incubated for 30 minutes in complete medium. The coverslips were then incubated with […] of anti-c-Abl (K-12) for 1 hour followed by Texas Red-goat anti-rabbit Ig (H+L) conjugate (Molecular Probes, Eugene, Oreg.). Mitochondria were stained with 100 nM Mitotracker Green FM (Molecular Probes, OR). Nuclei were stained with 4,6-diamino-2-phenylindole (DAPI; 1 mg/ml in PBS). Coverslips were mounted onto slides with 0.1 M Tris (pH 7.0) in 50% glycerol. Cells were visualized by digital confocal immunofluorescence and images were captured with a cooled CCD camera mounted on a Zeiss Axioplan 2 microscope. Images were deconvolved using Slidebook software (Intelligent Imaging Innovations, Inc., Denver, Colo.).
Protein concentration was determined by the Bio-Rad protein estimation kit.
Preparation of cell lysates: Whole cell lysates (WCL) were prepared as described (Kharbanda et al. (1995) Nature 376, 785-788) and analyzed for protein concentration.
Immunoprecipitation and immunoblot analysis. Soluble proteins ([…]) were incubated with anti-c-Abl (K-12; Santa Cruz Biotechnology) for 1 hour and precipitated with protein A-sepharose for 30 minutes. Immunoprecipitates and lysates ([…]) were resolved by SDS-PAGE and analyzed by immunoblotting with anti-c-Abl (24-11; Santa Cruz), anti-HSP60 (Stressgen, Victoria, British Columbia), anti-b-actin (Sigma) anti-PCNA (Calbiochem), anti-PDGF receptor (Oncogene) and anti-PKCd (Santa Cruz).

The subject of the next experiment is ATP levels. The settings on record: wild-type and c-Abl+ cells, H2O2. Here is the method: Quantitation of ATP: ATP levels were measured using an ATP Determination Kit (Molecular Probes).
Another experiment deals with MCF-7/neo cells. The experiment in a line: Apoptosis by sub-G1 DNA content in MCF-7/neo cells.
The target of experiment [13] is PKCd (Homo sapiens, UniProt Q05655). The experiment in a line: PKCd translocation to mitochondria in U-937 cells, immunoblot of fractions. The experiment is classed as cell-based. Details: subjecting cytoplasmic and mitochondrial fractions to immunoblotting with anti-PKC antibodies; endogenous in cells; host or cells: U-937. The settings on record: 1 mM H2O2. The method, then:
as §7
Mitochondria were stained with 0.006 ng/slide of Mitotracker Green FM (Molecular Probes). The slides were analyzed using a Zeiss Auxiphot fluorescence microscope coupled to a CCD camera and a power Macintosh 8100. Image analysis was performed using the IPLab Spectrum 3.1 software (Signal Analytics).
as §8, §9, §10
Mitochondria were stained with 0.006 ng/slide of Mitotracker Green FM (Molecular Probes). The slides were analyzed with a Zeiss Auxiphot fluorescence microscope coupled to a CCD camera and a power Macintosh 8100. Image analysis was performed using the IPLab Spectrum 3.1 software (Signal Analytics).

In the next experiment the target is PKCγ (Homo sapiens, UniProt P05129). The experiment can be described thus: Cytoplasmic or mitochondrial PKCγ levels in U-937 cells, immunoblot. The following applies: H2O2.
For another experiment, the system named is 26S proteosome. The experiment in a line: In vitro Ub-proteosome system, degradation of catalase. The experiment is classed as biochemical. The text has this:
As a control, degradation was inhibited when [g-S]ATP was substituted for ATP to prevent ubiquitination. […] Lactacystin, another proteosome inhibitor, was used to assess degradation of catalase in cells.

Residues, ends and D or L forms follow the SMILES beside them. *: point of attachment. Cbz = O=C(OCc1ccccc1)*

Chain of PKCd (Mus musculus, UniProt P28867) (P28867 whole entry): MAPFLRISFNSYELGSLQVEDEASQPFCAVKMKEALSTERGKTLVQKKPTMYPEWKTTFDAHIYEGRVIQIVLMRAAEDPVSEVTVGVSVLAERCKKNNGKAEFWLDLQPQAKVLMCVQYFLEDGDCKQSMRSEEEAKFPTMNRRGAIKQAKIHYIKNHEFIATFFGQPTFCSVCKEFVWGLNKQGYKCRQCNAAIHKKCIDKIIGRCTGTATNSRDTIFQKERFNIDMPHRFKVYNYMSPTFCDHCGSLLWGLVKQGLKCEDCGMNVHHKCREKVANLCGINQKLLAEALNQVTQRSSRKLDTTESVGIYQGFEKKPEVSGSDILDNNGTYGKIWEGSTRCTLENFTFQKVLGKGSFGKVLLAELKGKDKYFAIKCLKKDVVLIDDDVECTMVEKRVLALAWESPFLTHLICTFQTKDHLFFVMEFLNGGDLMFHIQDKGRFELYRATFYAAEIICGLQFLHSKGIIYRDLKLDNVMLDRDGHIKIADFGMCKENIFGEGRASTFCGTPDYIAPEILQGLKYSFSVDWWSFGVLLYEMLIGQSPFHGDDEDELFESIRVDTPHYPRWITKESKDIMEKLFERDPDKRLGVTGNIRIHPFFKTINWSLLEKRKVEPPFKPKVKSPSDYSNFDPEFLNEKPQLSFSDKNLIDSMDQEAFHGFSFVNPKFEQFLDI
Chain of PKCd (Homo sapiens, UniProt Q05655) (Q05655 whole entry): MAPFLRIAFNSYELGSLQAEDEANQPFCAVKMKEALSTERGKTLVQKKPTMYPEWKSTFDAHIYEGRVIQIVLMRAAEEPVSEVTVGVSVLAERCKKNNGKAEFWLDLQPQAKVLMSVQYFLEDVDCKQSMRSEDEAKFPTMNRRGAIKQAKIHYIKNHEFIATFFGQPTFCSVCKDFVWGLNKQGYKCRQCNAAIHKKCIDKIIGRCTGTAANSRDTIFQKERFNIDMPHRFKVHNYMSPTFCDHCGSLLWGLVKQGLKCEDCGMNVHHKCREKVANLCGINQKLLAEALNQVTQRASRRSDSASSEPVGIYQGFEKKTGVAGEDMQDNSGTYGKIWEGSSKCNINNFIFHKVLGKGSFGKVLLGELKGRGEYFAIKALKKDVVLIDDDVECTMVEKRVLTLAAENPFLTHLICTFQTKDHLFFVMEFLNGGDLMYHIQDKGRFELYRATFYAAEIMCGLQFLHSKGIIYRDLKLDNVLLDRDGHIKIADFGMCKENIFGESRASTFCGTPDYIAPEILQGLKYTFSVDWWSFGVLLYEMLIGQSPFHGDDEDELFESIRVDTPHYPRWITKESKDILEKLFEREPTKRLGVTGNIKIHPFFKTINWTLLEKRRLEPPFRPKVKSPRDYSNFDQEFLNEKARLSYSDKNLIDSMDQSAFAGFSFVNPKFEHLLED

In the case of `CNc1ccc2oc(C[C@H]3O[C@@]4(CC[C@H]3C)O[C@H]([C@H](C)C(=O)c3ccc[nH]3)[C@H](C)C[C@H]4C)nc2c1C(=O)O` [A23187], in the experiment on c-Abl [1], the “mitochondrial c-Abl activity” value is “increases in mitochondrial c-Abl activity”. Moreover, the “c-Abl levels in the cytoplasm or nucleus” value with c-Abl [2] was “little if any effect”. In the experiment on MEFs (c-Abl−/− cells), the induction of apoptosis entry is reported as “little effect”. Further, the “apoptosis, sub-G1 DNA” value in the experiment with MEFs (wild-type cells) is given as “induction of sub-G1 DNA”. Further, in the experiment on cytochrome c [3], the “release of cytochrome c” value is reported as “induces the release of cytochrome c”. Besides, in the experiment on c-Abl [4] (anti-c-Abl and Mitotracker signals), the “translocation of c-Abl to mitochondria, intracellular fluorescence” value was “translocation of c-Abl to mitochondria”. Also, in the experiment on c-Abl [4] (mitochondrial fraction), the “c-Abl protein in the mitochondrial fraction, immunoblot” value is “time-dependent increase”. The “c-Abl levels in the ER fraction” value with c-Abl [5] is on record as “time-dependent decrease”. In addition, in the experiment on grp78, the “expression of grp78” value was “increases in expression of grp78”.
With `OO` [H2O2, hydrogen peroxide], in experiment [6], the “mitochondrial transmembrane potential (Ψ)” value is given as “substantially diminished”. In the experiment on c-Abl [7], the “c-Abl activity in cytoplasts” value was “induction of c-Abl activity”. Moreover, in the experiment on cytochrome c [8], the “cytochrome c in cytoplasmic lysates” value is on record as “increased levels of cytochrome c”. In addition, the cytochrome c release result in the experiment with cytochrome c [9] is recorded as “induces cytochrome c release”. In addition, the “stimulation of the Crk kinase activity of anti-c-Abl immunoprecipitates” value with c-Abl [10] (COS7 cells exposed to H2O2, GST-Crk(120-225) substrate) is 4-5 fold. In the experiment on c-Abl [10] (H2O2 exposure), the “time of maximal induction of c-Abl activity” value was in the range of 30 to 60 min. Besides, the “induction of c-Abl activity” value in the experiment with c-Abl [10] (exposure to 1 mM H2O2) was determined as 5 fold. In the experiment with PKCζ, the “mitochondrial levels of PKCζ” value was “little if any effect”. Further, the “localization of PKCd to mitochondria” value on PKCd [11] was “localization of PKCd to mitochondria”. Moreover, in the experiment with c-Abl [12] (MEFs following H2O2, approximately 4% without treatment), the “total c-Abl that localizes to mitochondria” value is reported as “approximately 20%”. The “increase in mitochondrial c-Abl protein, densitometric scanning” value in the experiment with c-Abl [12] (MEFs, 0.5 to 1 hour of H2O2 treatment) was greater than 5 fold. The ATP levels entry with ATP levels is recorded as “depletion of ATP”. Moreover, in the experiment with MCF-7/neo cells, the apoptosis entry is on record as “induction of apoptosis”. Further, the “mitochondrial PKCd” value at PKCd [13] was “increases in mitochondrial PKCd”. Moreover, at PKCγ, the “mitochondrial levels of PKCγ” value was “little if any effect”.
Consider `CC(C)C[C@@H](C=O)NC(=O)[C@H](CC(C)C)NC(=O)[C@H](CC(C)C)NC(=O)OCc1ccccc1` [MG132] (Cbz-Leu-Leu-Leu-aldehyde), for which the degradation of catalase result in the experiment with 26S proteosome is “blocked”.
